Measured values taken from patent US12193465B2, “Materials and methods for extending shelf-life of foods” (JP Laboratories, Inc., priority 2021, dated 2025).

Legend:
[1] = tested on: parval, methi, coriander, radish, guar; assay: Shriveling / wilting / dehydration / becoming wet of produce; details: Example 130, Wilting, Coriander, 1 hr P-E, control 11 days
Description: (§1) Most of the foods changed color or texture.
(§2) The assembly was shaken periodically.

[2] = tested on: grains, legumes, potatoes, garlic; assay: Germination / sprouting of grains, legumes and tubers; details: for Spoilage Time - Sample: Example 129, Sprouting, Small yellow potatoes, Sachet, 100% relative humidity, control 8 days
Description: (§3) These bags were sealed with a heat sealer.
as §2

fungus = assay: Fungus growth on treated foods stored in closed containers at room temperature; details: for Spoilage Time - Sample: Fungus; for Effectiveness on ginger: pre-exposure and sachet method
Description: as §1
Glass jars and bottles were also used. The containers were snap-closed or with a lid.
as §3, §2

[3] = General shelf-life extension of foods (spoilage criteria of Example 9); details: for Effectiveness for controlling one or more spoilage criteria: variety of foods
Experimental: (§4) All studies were conducted at a room temperature of about 25° C. To determine the effectiveness of a shelf-life extender, a control sample which was untreated with any shelf-life extenders, was tested identical to the test samples. […] All studies in those Examples of Tables 1-6 were conducted in closed plastic or glass containers. Containers, such as plastic containers, without or with lids having holes can be used if it is advantageous to let excess moisture escape or to prevent condensation of moisture released by some produce.
(§5) Food exposed to preservatives or by a sachet was placed in typically polystyrene or acrylic containers depending upon the size and number of food items. Glass jars and bottles were also used. The containers were snap-closed or with a lid. The containers were purchased mainly from Amazon or Webstaurant.com store. When needed, plastic containers with holes or without lids were used.
(§6) For controlled exposure and a constant supply of a preservative to foods, sachets containing one or more drops of preservatives were used. Sachets were made by placing an appropriate amount of a preservative in a plastic bag containing a piece of paper and heat sealing the bag. The sachet bag materials used were Tyvek® for solid preservative, polyethylene, polyester and high barrier multilayer films were used for liquid preservatives. These bags were sealed with a heat sealer. The sachet was typically applied on one side of the container containing food.
(§7) A piece of paper napkin was taped inside a 100 microns thick polyethylene or polyester Ziploc bag. The size of the bag varied from ˜20 cm×30 cm to ˜60 cm×90 cm depended on the sample with sandwich bags up to gallon bags being exemplary. The paper napkin was wetted with 0.1-0.5 ml of a preservative or a mixture of preservatives. A tray of aluminum, stainless steel or glass containing the foods was placed inside the plastic (polyethylene, polyester and multilayer-laminated) bag and almost closed by locking the Ziploc. Air was blown with an air blower from the unclosed end until the bag was fully blown and then quickly closed tightly by locking the remaining Ziploc. If a preservative was a sublimable solid, it was placed in a petri dish and then placed inside the bag in the tray before blowing air. The exposure time was varied from five minutes to a day depending upon the food. […] The assembly was shaken periodically. After the predetermined time, the tray containing produce was removed from the bag, allowed to de-gas for 10-30 minutes in air and the produce was then placed in an appropriately sized container. Glass and stainless steel containers with lids were also often used.
(§8) A solution of one or more preservatives was prepared in a large (e.g., 2-10 liter) glass beaker or a jar. A sack containing the food was prepared by placing the food in a plastic mesh bag. The sack was placed in the solution of the preservative. A smaller glass beaker containing proper amount of water was place over the package to keep the sack soaked in the solution of the preservative during the treatment. The solution was stirred either with a plastic spatula or with a magnet over a magnetic stirrer. After treatment, the mesh sack was removed, the produce was washed in a tray with running water, strained and air dried at 30° C. in an air blowing oven for about 5-10 minutes, while shaking the tray or turning the food periodically followed by placing the sample in an appropriate container.
(§9) The food was placed in mesh trays and sprayed with an aqueous solution (1-10%) of a preservative while shaking the tray or turning the food. The solution was allowed to drain from the tray and the food was air dried in an air blowing oven at 30° C. for about 5-10 minutes, while shaking the tray or turning food periodically followed by placing the sample in an appropriate container.

[4] = Color change / browning / yellowing of foods (keeping produce green longer)
Experimental: as §4, §5, §6, §7, §8, §9

avocado = assay: Softening / rotten inside (spoiled flesh) of avocado
Description: as §1, §2

[5] = tested on: green tomato, papaya, banana, mango, peppers, tindora; assay: Ripening of fruits and vegetables (delayed or expedited); details: Ripening, Green tomato, 2 hrs P-E
Experimental: as §4, §6, §7, §8
The untreated (control sample) and treated food were placed in proper sized plastic containers and the containers were tightly closed.
The following major criteria were used for determining spoilage of foods: growth of fungus, color change, unpleasant odor, wilting, firmness or shriveling, change of state (liquid to solid or vice versa), and sprouting or germination Example 10: Sources of food.

cut lilies = assay: Keeping cut flowers longer (browning of petals); details: Example 118, 0.01% solution, control <12 days
Description: Other preservative tested with flowers include: cyclohexanone, 2-cyclohexen-1-one, 1-methyl-1-cyclopentene, 3-methoxyphenylboronic acid, 3-chlorophenylboronic acid, benzyl ether, choline chloride and hydrogen sulfide. Flowers can be exposed to very low concentration, e.g., in ppm, of vapor of the shelf-life extenders to keep them fresher longer.

[6] = Color loss of meat and fish; details: meat and fish
Description: as §1, §3

## CC(=O)CC(C)=O [AA, Acetylacetone]
[1]
  Spoilage Time - Sample: 21+ days
[1]; listed as acetylacetone
  Spoilage Time - Sample: > 21 days
[2]
  Spoilage Time - Sample: 48+ days
[2]; listed as acetylacetone
  Spoilage Time - Sample: > 48 days
fungus; Example 120, Farmer's cheese, 0.5 hr P-E, control 5 days
  Spoilage Time - Sample: 34 days
fungus; Example 120, Farmer's cheese, 0.5 hr P-E, control 5 days, listed as Acetylacetone
  Spoilage Time - Sample: delayed the growth of fungus
fungus; Example 122, Raw milk Ricotta cheese, Sachet, control 3 days
  Spoilage Time - Sample: 35 days
fungus; Example 123, Raspberry, 1 hr P-E, control 5 days
  Spoilage Time - Sample: 31 days
fungus; Example 124, Yellow pearl onions, Sachet, control 24 days
  Spoilage Time - Sample: 48 days
fungus
  Effectiveness on ginger: found effective
fungus; strawberries, raspberries, blackberries and lychee
  Fungus growth: either prevented or significantly delayed
[3]
  Shelf-life of flowery vegetables: extended shelf-life
  Effectiveness for controlling one or more spoilage criteria: effective to a greater or lesser extent
[4]; Example 119, Color change, Parsley, 0.25 hr P-E, control 7 days
  Spoilage Time - Sample: 21+ days
[4]; Example 119, Color change, Parsley, 0.25 hr P-E, control 7 days, listed as acetylacetone
  Spoilage Time - Sample: > 21 days
avocado; Example 127, Rotten inside, Avocado, 1 hr P-E, control 7 days
  Spoilage Time - Sample: 9 days
avocado; Example 127, Rotten inside, Avocado, 1 hr P-E, control 7 days, listed as acetylacetone
  Spoilage Time - Sample: > 9 days
avocado; Example 128, Rotten inside, Haas Avocado, 1 hr P-E, control 11 days
  Spoilage Time - Sample: 11 days
[5]; Example 126, control 14 days
  Spoilage Time - Sample: 18 days
[5]; Example 126, control 14 days, listed as acetylacetone
  Spoilage Time - Sample: significantly delayed
Cut lilies
  Spoilage Time - Sample: 12+ days
Cut lilies; listed as acetylacetone
  Spoilage Time - Sample: > 12 days

## O=C1CCCCC1 [CY, Cyclohexanone]
[2]; potatoes
  Effectiveness at extending the shelf-life of potatoes: effective
fungus; Example 93, Raspberry, Sachet, control 5 days
  Spoilage Time - Sample: 9 days
fungus; Example 95, Blueberry, Sachet, control 5 days
  Spoilage Time - Sample: 67 days
fungus; Example 96, Farmer's cheese, 0.5 hr P-E, control 5 days
  Spoilage Time - Sample: 34 days
fungus; Example 96, Farmer's cheese, 0.5 hr P-E, control 5 days, listed as cyclohexanone
  Spoilage Time - Sample: delayed the growth of fungus
fungus; Example 98, Lychee, Sachet, control 3 days
  Spoilage Time - Sample: 31 days
fungus; Example 99, Cheesecake, Sachet, control 6 days
  Spoilage Time - Sample: 8+ days
fungus; Example 100, Puri, 16 hrs P-E, control 5 days
  Spoilage Time - Sample: 70+ days
fungus; Example 101, Rotala, 16 hrs P-E, control 5 days
  Spoilage Time - Sample: 70+ days
fungus; Example 102, Monterey cheese, Sachet, control 7 days
  Spoilage Time - Sample: 10+ days
fungus; Example 102, Monterey cheese, Sachet, control 7 days, listed as cyclohexanone
  Spoilage Time - Sample: either prevented or significantly delayed
fungus; Indian millet bread, Indian wheat bread (roti), cheesecake, sachet or pre-exposure to vapors
  Fungus growth: either prevented or significantly delayed
fungus
  Effectiveness on ginger: found effective
[6]
  Improvements with meat and fish: demonstrated improvements
[3]
  Shelf-life of flowery vegetables: extended shelf-life
  Effectiveness for controlling one or more spoilage criteria: effective to a greater or lesser extent
[3]; peanuts
  Shelf-life of shelled and unshelled peanuts: extended
[3]; tofu
  Effectiveness as shelf-life extender: effective
[4]; Example 92, Browning, Coriander, Sachet, control 11 days
  Spoilage Time - Sample: 11+ days
[4]; Example 92, Browning, Coriander, Sachet, control 11 days, listed as cyclohexanone
  Spoilage Time - Sample: significantly delayed
avocado; Example 107, Softening, Florida avocado, 2 hrs P-E, control 2 days
  Spoilage Time - Sample: 2 days
avocado; Example 108, Softening, Avocado, 2 hrs P-E, control 2 days
  Spoilage Time - Sample: 2 days
avocado; avocados, Examples 77, 78, 107, 108, 113 & 171
  Spoiling of the flesh with development of fungus: significantly delayed
[5]; Example 106, control 10 days
  Spoilage Time - Sample: 18 days
